The record followed here is patent US20250152611A1, “IMMUNOMODULATORY LIPIDS AND USES THEREOF” (President and Fellows of Harvard College, priority 2022, published 2025).

For test [1], the system named is mouse bone marrow-derived dendritic cells (mBMDCs). In words: mBMDC cytokine assay (wild-type cells; TNFα ELISA, cytometric bead array). Type of test: cell-based. Conditions: overnight, fractions or purified compounds at 50 μg/ml. The source says: Previously, to identify immunoregulatory small molecules from gut microbes, an unbiased functional assay was employed using cytokine release from murine bone marrow-derived dendritic cells (mBMDCs) in response to fractionated bacterial extracts (7). Dendritic cells, which are part of the innate immune system, detect pathogen-associated molecules and relay information to the adaptive immune system through the release of cytokines. It was reasoned that the same approach would identify immunomodulatory molecules produced by A. muciniphila.
These assays were done as described previously (21). Femurs and tibias were collected from male or female wild-type, TLR2^−/−, or TLR4^−/− C57BL/6 mice that were at least 3-4 weeks old and preferably 7-12 weeks of age. The bone marrow was pushed from the bones using a needle and syringe of complete Dulbecco's Modified Eagle Medium (DMEM) (supplemented with Gibco GlutaMAX Supplement (35050061), Gibco Penicillin-Streptomycin (15140122), and 10% heat-inactivated fetal bovine serum (FBS)) and strained through a 70 μm nylon filter. […] Cells were counted and then plated at approximately 5 million cells per plate with ˜20-40 ng/ml RmGM-CSF (PreProTech 315-03). […] The resulting bone marrow derived dendritic cells (mBMDCs), were then scraped and counted again. […] Data was collected with NovoExpress 1.4.1 and analyzed using FlowJo v10.7.

The target in another test is TLR2-TLR1 heterodimers (Homo sapiens, UniProt O60603+Q15399). The test can be described thus: Potency comparison of TLR2-TLR1 agonists (EC50). Type of test: cell-based. The settings on record: order of magnitude only.
Chain of TLR2-TLR1 heterodimers (O60603 21-784): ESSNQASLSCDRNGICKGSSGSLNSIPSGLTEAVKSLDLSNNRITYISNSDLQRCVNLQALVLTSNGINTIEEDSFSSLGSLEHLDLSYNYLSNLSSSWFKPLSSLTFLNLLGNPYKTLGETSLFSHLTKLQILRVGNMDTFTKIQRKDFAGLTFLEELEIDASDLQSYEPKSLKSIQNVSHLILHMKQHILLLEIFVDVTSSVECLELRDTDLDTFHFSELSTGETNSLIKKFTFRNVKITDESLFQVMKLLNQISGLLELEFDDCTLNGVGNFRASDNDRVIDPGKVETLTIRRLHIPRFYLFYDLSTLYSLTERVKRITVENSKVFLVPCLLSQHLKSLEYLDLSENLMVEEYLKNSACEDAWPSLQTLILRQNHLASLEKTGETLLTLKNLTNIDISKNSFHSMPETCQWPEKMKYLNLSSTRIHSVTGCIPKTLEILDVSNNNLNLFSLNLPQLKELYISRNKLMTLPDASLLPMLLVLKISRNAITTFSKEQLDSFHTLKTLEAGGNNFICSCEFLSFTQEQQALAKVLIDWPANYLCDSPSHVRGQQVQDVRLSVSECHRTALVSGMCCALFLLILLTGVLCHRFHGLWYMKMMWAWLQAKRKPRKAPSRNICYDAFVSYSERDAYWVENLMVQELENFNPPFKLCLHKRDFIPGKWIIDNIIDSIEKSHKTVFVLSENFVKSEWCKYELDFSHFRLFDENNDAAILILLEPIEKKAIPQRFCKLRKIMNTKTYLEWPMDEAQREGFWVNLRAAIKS
Chain of TLR2-TLR1 heterodimers (Q15399 25-786): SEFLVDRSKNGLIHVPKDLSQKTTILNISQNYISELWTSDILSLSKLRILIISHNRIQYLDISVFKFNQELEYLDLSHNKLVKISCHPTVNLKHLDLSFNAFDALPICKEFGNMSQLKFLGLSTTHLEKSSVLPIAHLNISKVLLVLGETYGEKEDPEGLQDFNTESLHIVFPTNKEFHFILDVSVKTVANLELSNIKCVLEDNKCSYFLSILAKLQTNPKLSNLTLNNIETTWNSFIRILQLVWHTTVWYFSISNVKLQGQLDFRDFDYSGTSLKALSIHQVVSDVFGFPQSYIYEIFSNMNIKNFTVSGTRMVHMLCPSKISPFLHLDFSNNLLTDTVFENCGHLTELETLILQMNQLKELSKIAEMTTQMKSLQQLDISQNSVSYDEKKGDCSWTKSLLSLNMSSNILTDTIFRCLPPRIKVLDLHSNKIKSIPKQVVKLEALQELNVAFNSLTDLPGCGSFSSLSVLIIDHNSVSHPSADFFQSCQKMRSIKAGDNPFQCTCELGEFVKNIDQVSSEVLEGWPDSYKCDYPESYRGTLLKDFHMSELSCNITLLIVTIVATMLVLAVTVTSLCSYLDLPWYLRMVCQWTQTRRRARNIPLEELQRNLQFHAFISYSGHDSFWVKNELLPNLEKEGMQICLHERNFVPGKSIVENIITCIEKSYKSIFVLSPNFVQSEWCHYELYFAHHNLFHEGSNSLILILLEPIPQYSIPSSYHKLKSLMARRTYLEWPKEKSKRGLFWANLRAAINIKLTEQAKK

`CCCCCCCCCCCCCCCC(=O)OCC(COP(=O)(O)OCCN)OC(=O)CCCCCCCCCCCCCCC` (stereo not drawn) [n16:0-n16:0 PE]: the TNFα induction/production entry in test [1] is recorded as “no detectable TNFα induction”.

For `CC[C@H](C)CCCCCCCCCCC(=O)OC[C@@H](COP(=O)(O)OCCN)OC(=O)CCCCCCCCCCCC(C)C` [a15:0-i15:0 PE, 12-methyltetradecanoyl-13-methyltetradecanoyl-sn-glycero-3-phosphoethanolamine], on TLR2-TLR1 heterodimers, the EC50 values result is on record as “μM”.

Regarding `CCCCCCCCCCCCCC(=O)OC[C@H](COP(=O)(O)OCCN)OC(=O)CCCCCCCCCCCCC` [n14:0-n14:0 PE], the TNFα induction/production entry in test [1] is on record as “no detectable TNFα induction”.
